Experimental data published in patent US11529354B2, “Methods and compositions for the treatment of tuberculosis” (PRESIDENT AND FELLOWS OF HARVARD COLLEGE, priority 2017, dated 2022).
In brackets after ≈: the same amount, converted by molar mass. Like-named read-outs stand apart in the source and are kept apart here.

How the values were obtained:
[1] = test system: Bacillus Calmette-Guérin (BCG); assay: organism not typed; format: cell-based, Mycobacterium bovis
[2] = test system: clinical Mycobacterium tuberculosis strains (HsRs: 90#, 140#, 74#); assay: microbe, parasite or virus in culture; format: cell-based
[3] = test system: MTB H37Rv; assay: microbe, parasite or virus in culture; format: cell-based, Mycobacterium tuberculosis; conditions: susceptible H37Rv
[4] = test system: M. avium A209; assay: MIC on closely related bacteria: M. avium; format: cell-based; conditions: Mycobacterium avium
[5] = test system: M. terrae BZ-15; assay: MIC on closely related bacteria: M. terrae; format: cell-based; conditions: Mycolicibacter terrae, BZ15
[6] = test system: M. cheelonae BZ-4; assay: MIC on closely related bacteria: M. cheelonae; format: cell-based
[7] = test system: M. scrofulaceum BZ-20; assay: MIC on closely related bacteria: M. scrofulaceum; format: cell-based; conditions: Mycobacterium scrofulaceum, BZ20
[8] = test system: M. abscessus BZ-24; assay: MIC on closely related bacteria: M. abscessus; format: cell-based; conditions: Mycobacteroides abscessus, BZ24
[9] = test system: M. xenopi BZ-23; assay: MIC on closely related bacteria: M. xenopi; format: cell-based; conditions: Mycobacterium xenopi, BZ23
[10] = in vitro; conditions: human
[11] = test system: intracellular BCG within macrophages; format: cell-based, Mycobacterium bovis
[12] = test system: GFP-expressing BCG in infected THP-1 cells; assay: microbe, parasite or virus in culture; format: cell-based; conditions: Mycobacterium tuberculosis variant bovis BCG, THP-1, read-out: IC50, growth of GFP-expressing BCG in infected THP-1 cells
[13] = MTT cytotoxicity assay; conditions: human
[14] = read-out: MIC from in vitro validation
[15] = read-out: MIC from in vitro validation on BCG

Q: With `Cc1ccc2[nH]c3c(c2c1)CCCC3NCc1ccccc1` (centres unmarked) [CAS 118498-98-9, N-benzyl-6-methyl-2,3,4,9-tetrahydro-1H-carbazol-1-amine] as the compound, how does the MIC [1, 14] read?
A: Its MIC is 32 µg/mL (≈ 110 µM).

Q: What about the MIC [2] of the same compound?
A: Its MIC is 6.4 µg/mL (≈ 22 µM).

Q: And the MIC ([2]; strain 74#, HsRs, read-out: MIC)?
A: Its MIC is 6.4 µg/mL (≈ 22 µM).

Q: And the MIC ([2]; strain 140#, HsRs, read-out: MIC)?
A: The MIC was 3.2 µg/mL (≈ 11 µM).

Q: For `O=c1/c(=C/c2cc(Br)ccc2F)sc2nc3ccccc3n12` [CAS 292169-72-3, (Z)-2-(5-Bromo-2-fluorobenzylidene)benzo[4,5]imidazo[2,1-b]thiazol-3(2H)-one], which MIC [1, 14] is on record?
A: Its MIC is > 128 µg/mL.

Q: For `O=C1CC(c2cccc(O)c2)Nc2ccc3ccccc3c21` (centres unmarked) [CAS 333759-52-7, 3-(3-hydroxyphenyl)-3,4-dihydrobenzo[f]quinolin-1(2H)-one], which MIC [1, 14] is on record?
A: Its MIC is > 128 µg/mL.

Q: Which MIC [1, 14] does the source give for `O=[N+]([O-])c1cccc(CNC2CCCc3ccccc32)c1` (centres unmarked) [CAS 353779-33-6, N-(3-nitrobenzyl)-1,2,3,4-tetrahydronaphthalen-1-amine] here?
A: Its MIC is 128 µg/mL (≈ 453 µM).

Q: For `O=[N+]([O-])c1ccccc1CNCCc1c[nH]c2ccccc12` [CAS 355816-45-4, 2-(1H-indol-3-yl)-N-(2-nitrobenzyl)ethanamine], which MIC [1, 14] is on record?
A: Its MIC is 128 µg/mL (≈ 433 µM).

Q: Which MIC [1, 14] does the source give for `COc1ccc(N2COc3ccc4cc(Br)ccc4c3C2)cc1` [CAS 376374-34-4, 8-bromo-2-(4-methoxyphenyl)-2,3-dihydro-1H-naphtho[1,2-e][1,3]oxazine] here?
A: The MIC was 128 µg/mL (≈ 346 µM).

Q: For `O=C(O)C1C2C(=O)N(Cc3ccccn3)C[C@]23C=C[C@H]1O3` (stereo partly drawn) [CAS 1164528-69-1, (3aS,6R)-1-oxo-2-(pyridin-2-ylmethyl)-1,2,3,6,7,7a-hexahydro-3a,6-epoxyisoindole-7-carboxylic acid], which MIC [1, 14] is on record?
A: The MIC was > 128 µg/mL.

Q: Which MIC [1, 15] does the source give for `c1ccc2cc(OCCOCCOc3ccc4ccccc4c3)ccc2c1` [NSC 37219, 2-[2-(2-naphthalen-2-yloxyethoxy)ethoxy]naphthalene] here?
A: The MIC was 80 µg/mL (≈ 223 µM).

Q: Which MIC [1, 15] does the source give for `O=C(Nc1cccc(-c2nc3ccccc3[nH]2)c1)c1ccc(C(=O)Nc2cccc(-c3nc4ccccc4[nH]3)c2)cc1` [NSC 61610, 1-N,4-N-bis[3-(1H-benzimidazol-2-yl)phenyl]benzene-1,4-dicarboxamide] here?
A: The MIC was 40 µg/mL (≈ 72.9 µM).

Q: For `O=C(Nc1ccc(Oc2ccc(NC(=O)Nc3ccccc3Cl)cc2)cc1)Nc1ccccc1Cl` [NSC 80731, 1-(2-chlorophenyl)-3-[4-[4-[(2-chlorophenyl)carbamoylamino]phenoxy]phenyl]urea], which MIC [1, 15] is on record?
A: Its MIC is 80 µg/mL (≈ 158 µM).

Q: With `CO[C@@H]1[C@@H](OC(=O)c2ccc(C)[nH]2)[C@@H](O)[C@H](Oc2ccc3c(O)c(NC(=O)c4ccc(O)c(CC=C(C)C)c4)c(=O)oc3c2Cl)OC1(C)C` [NSC 227186, [(3R,4S,5R,6S)-6-[8-chloro-4-hydroxy-3-[[4-hydroxy-3-(3-methylbut-2-enyl)benzoyl]amino]-2-oxochromen-7-yl]oxy-5-hydroxy-3-methoxy-2,2-dimethyloxan-4-yl]5-methyl-1H-pyrrole-2-carboxylate] as the compound, how does the “performance on BCG compared with isoniazid and rifampicin” value [1] read?
A: The value was “performed at levels comparable of isoniazid and rifampicin”.

Q: And the MIC [1, 15]?
A: Its MIC is 0.625 µg/mL (≈ 0.897 µM).

Q: And the MIC ([3]; Mycobacterium tuberculosis, Table 4, read-out: MIC)?
A: Its MIC is < 0.625 µg/mL.

Q: What about the MIC [4] of the same compound?
A: Its MIC is 80 µg/mL (≈ 115 µM).

Q: What about the MIC [5] of the same compound?
A: The MIC was > 80 µg/mL.

Q: And the MIC [6]?
A: The MIC was 40 µg/mL (≈ 57.4 µM).

Q: And the MIC [7]?
A: The MIC was 80 µg/mL (≈ 115 µM).

Q: What about the MIC [8] of the same compound?
A: Its MIC is 40 µg/mL (≈ 57.4 µM).

Q: What about the MIC [9] of the same compound?
A: The MIC was 80 µg/mL (≈ 115 µM).

Q: With `Cn1ccc(=Nc2ccc(NC(=O)c3ccc(N=c4ccn(C)c5ccc([N+](=O)[O-])cc45)cc3)cc2)cc1` [NSC 260594, 4-[(1-methyl-6-nitroquinolin-4-ylidene)amino]-N-[4-[(1-methylpyridin-4-ylidene)amino]phenyl]benzamide] as the compound, how does the “performance on BCG compared with isoniazid and rifampicin” value [1] read?
A: Its value is “performed at levels comparable of isoniazid and rifampicin”.

Q: What about the MIC [1, 15] of the same compound?
A: The MIC was 0.078 µg/mL (≈ 0.155 µM).

Q: What about the MIC ([3]; Mycobacterium tuberculosis, Table 7 and text, read-out: MIC) of the same compound?
A: The MIC was < 0.625 µg/mL.

Q: What about the MIC ([3]; Table 4) of the same compound?
A: The MIC was <0.625 µg/mL.

Q: And the MIC ([3]; Table 7 and text)?
A: The MIC was <0.625 µg/mL.

Q: What about the MIC [4] of the same compound?
A: The MIC was 1.25 µg/mL (≈ 2.48 µM).

Q: What about the MIC [5] of the same compound?
A: Its MIC is 2.5 µg/mL (≈ 4.95 µM).

Q: And the IC50 [10]?
A: The IC50 was 7.5 µg/mL (≈ 14.9 µM).

Q: And the MIC [6]?
A: The MIC was > 80 µg/mL.

Q: And the MIC [7]?
A: Its MIC is > 80 µg/mL.

Q: And the MIC [8]?
A: Its MIC is > 80 µg/mL.

Q: What about the MIC [9] of the same compound?
A: Its MIC is > 80 µg/mL.

Q: And the “intracellular anti-TB activity against BCG” value [11]?
A: Its value is “time- and concentration-dependent anti-TB activity”.

Q: And the IC50 [12]?
A: Its IC50 is 7.8 µg/mL (≈ 15.5 µM).

Q: Which MIC [1, 15] does the source give for `O=[N+]([O-])c1ccc(C2CC(c3ccccc3)=Nc3ccccc3S2)cc1` (centres unmarked) [NSC 270738, 2-(4-nitrophenyl)-4-phenyl-2,3-dihydro-1,5-benzothiazepine] here?
A: Its MIC is 5 µg/mL (≈ 13.9 µM).

Q: Which IC50 [13] does the source give for `CO[C@H]1/C=C/O[C@@]2(C)Oc3c(C)c(O)c4c(O)c(c(/C=N/N5CCN(C)CC5)c(O)c4c3C2=O)NC(=O)/C(C)=C\C=C\[C@H](C)[C@H](O)[C@@H](C)[C@@H](O)[C@@H](C)[C@H](OC(C)=O)[C@@H]1C` [Rifampicin, reference compound] here?
A: The IC50 was 1 µg/mL (≈ 1.22 µM).
